Source: ChEMBL document CHEMBL3885881, “DrugMatrix”

Species: Rattus norvegicus
Assay: DrugMatrix - Regimen: Daily Repeat
Format: toxicity, organism-based, Sprague-Dawley
Design: regimen Daily Repeat, gender Male, age 6-8 weeks
Details: in vivo, po, route oral GAVAGE; for ABSOLUTE BASOPHIL / ABSOLUTE EOSINOPHIL / ABSOLUTE LYMPHOCYTE / ABSOLUTE MONOCYTE / ABSOLUTE SEGMENTED NEUTROPHIL / BASOPHIL / EOSINOPHIL / ERYTHROCYTE COUNT / HEMATOCRIT / HEMOGLOBIN / LEUKOCYTE COUNT / LYMPHOCYTE / MEAN CORPUSCULAR HEMOGLOBIN / MEAN CORPUSCULAR HEMOGLOBIN CONCENTRATION / MEAN CORPUSCULAR VOLUME / MONOCYTE / NEUTROPHIL / NUCLEATED RED BLOOD CELLS / PLATELET COUNT: tissue Blood; for ALANINE AMINOTRANSFERASE / ALBUMIN / ALKALINE PHOSPHATASE / ASPARTATE AMINOTRANSFERASE / BLOOD UREA NITROGEN / CARBON DIOXIDE / CHLORIDE / CHOLESTEROL / CREATINE PHOSPHOKINASE / CREATININE / GLUCOSE / LACTATE DEHYDROGENASE / LIPASE / PHOSPHORUS / POTASSIUM / SODIUM / TOTAL BILIRUBIN / TOTAL PROTEIN / URIC ACID: tissue Plasma
[1] = 0 mg/kg, 72 h, dose level Control, time 3 day, […]
[2] = 0 mg/kg, 72 h, dose level Control, time 3 day, vehicle 100 % WATER
[3] = 0 mg/kg, 120 h, dose level Control, time 5 day, […]
[4] = 0 mg/kg, 120 h, dose level Control, time 5 day, vehicle 100 % WATER
[5] = 20 mg/kg, 72 h, dose level Low, time 3 day, […]
[6] = 20 mg/kg, 120 h, dose level Low, time 5 day, […]

Cn1cnc([N+](=O)[O-])c1Sc1ncnc2nc[nH]c12 [AZATHIOPRINE]
ABSOLUTE BASOPHIL [1]: 0 CELLS/uL
ABSOLUTE EOSINOPHIL [1]: 0 CELLS/uL
ABSOLUTE LYMPHOCYTE [1]: 7601 CELLS/uL
ABSOLUTE MONOCYTE [1]: 354.33 CELLS/uL
ABSOLUTE SEGMENTED NEUTROPHIL [1]: 744.67 CELLS/uL
BASOPHIL [1]: 0%
EOSINOPHIL [1]: 0%
ERYTHROCYTE COUNT [1]: 5.03 x10E6/uL
HEMATOCRIT [1]: 33.7%
HEMOGLOBIN [1]: 13.43 G/DL
LEUKOCYTE COUNT [1]: 8.7 x10E3/uL
LYMPHOCYTE [1]: 86.33%
MEAN CORPUSCULAR HEMOGLOBIN [1]: 26.7 pg
MEAN CORPUSCULAR HEMOGLOBIN CONCENTRATION [1]: 39.83 G/DL
MEAN CORPUSCULAR VOLUME [1]: 67 fL
MONOCYTE [1]: 4.67%
NEUTROPHIL [1]: 9%
NUCLEATED RED BLOOD CELLS [1]: 0 /100WBC
PLATELET COUNT [1]: 1151 x10E3/uL
ABSOLUTE EOSINOPHIL [2]: 91.5 CELLS/uL
ABSOLUTE LYMPHOCYTE [2]: 14108.83 CELLS/uL
ABSOLUTE MONOCYTE [2]: 81 CELLS/uL
ABSOLUTE SEGMENTED NEUTROPHIL [2]: 818.67 CELLS/uL
EOSINOPHIL [2]: 0.67%
ERYTHROCYTE COUNT [2]: 5.56 x10E6/uL
HEMATOCRIT [2]: 34.5%
HEMOGLOBIN [2]: 13.45 G/DL
LEUKOCYTE COUNT [2]: 15.1 x10E3/uL
LYMPHOCYTE [2]: 93%
MEAN CORPUSCULAR HEMOGLOBIN [2]: 24.2 pg
MEAN CORPUSCULAR HEMOGLOBIN CONCENTRATION [2]: 38.98 G/DL
MEAN CORPUSCULAR VOLUME [2]: 62.07 fL
MONOCYTE [2]: 0.5%
NEUTROPHIL [2]: 5.83%
PLATELET COUNT [2]: 1193.33 x10E3/uL
ALANINE AMINOTRANSFERASE [1]: 97.67 u/L
ALBUMIN [1]: 4.07 G/DL
ALKALINE PHOSPHATASE [1]: 607.67 u/L
ASPARTATE AMINOTRANSFERASE [1]: 101 u/L
BLOOD UREA NITROGEN [1]: 13.33 mg/dL
CARBON DIOXIDE [1]: 36 mmol/L
CHLORIDE [1]: 99.67 MEQ/L
CHOLESTEROL [1]: 75.67 mg/dL
CREATINE PHOSPHOKINASE [1]: 279.67 u/L
CREATININE [1]: 0.16 mg/dL
GLUCOSE [1]: 164 mg/dL
LACTATE DEHYDROGENASE [1]: 115 u/L
LIPASE [1]: 12.67 u/L
PHOSPHORUS [1]: 8.77 mg/dL
POTASSIUM [1]: 5.79 MEQ/L
SODIUM [1]: 142.83 MEQ/L
TOTAL BILIRUBIN [1]: 0.27 mg/dL
TOTAL PROTEIN [1]: 5.8 G/DL
URIC ACID [1]: 0.67 mg/dL
ALANINE AMINOTRANSFERASE [2]: 60.33 u/L
ALBUMIN [2]: 4 G/DL
ALKALINE PHOSPHATASE [2]: 334.83 u/L
ASPARTATE AMINOTRANSFERASE [2]: 74.5 u/L
BLOOD UREA NITROGEN [2]: 13.5 mg/dL
CARBON DIOXIDE [2]: 30.33 mmol/L
CHLORIDE [2]: 98.33 MEQ/L
CHOLESTEROL [2]: 71.17 mg/dL
CREATINE PHOSPHOKINASE [2]: 212 u/L
CREATININE [2]: 0.21 mg/dL
GLUCOSE [2]: 173.17 mg/dL
LACTATE DEHYDROGENASE [2]: 101.5 u/L
LIPASE [2]: 24.17 u/L
PHOSPHORUS [2]: 10.87 mg/dL
POTASSIUM [2]: 6.06 MEQ/L
SODIUM [2]: 140.58 MEQ/L
TOTAL BILIRUBIN [2]: 0.17 mg/dL
TOTAL PROTEIN [2]: 5.9 G/DL
URIC ACID [2]: 1.23 mg/dL
ABSOLUTE BASOPHIL [3]: 0 CELLS/uL
ABSOLUTE EOSINOPHIL [3]: 0 CELLS/uL
ABSOLUTE LYMPHOCYTE [3]: 4426.33 CELLS/uL
ABSOLUTE MONOCYTE [3]: 102.67 CELLS/uL
ABSOLUTE SEGMENTED NEUTROPHIL [3]: 337.67 CELLS/uL
BASOPHIL [3]: 0%
EOSINOPHIL [3]: 0%
ERYTHROCYTE COUNT [3]: 5.31 x10E6/uL
HEMATOCRIT [3]: 32.5%
HEMOGLOBIN [3]: 13.17 G/DL
LEUKOCYTE COUNT [3]: 4.87 x10E3/uL
LYMPHOCYTE [3]: 90.33%
MEAN CORPUSCULAR HEMOGLOBIN [3]: 24.93 pg
MEAN CORPUSCULAR HEMOGLOBIN CONCENTRATION [3]: 40.67 G/DL
MEAN CORPUSCULAR VOLUME [3]: 61.33 fL
MONOCYTE [3]: 2.33%
NEUTROPHIL [3]: 7.33%
NUCLEATED RED BLOOD CELLS [3]: 0.33 /100WBC
PLATELET COUNT [3]: 848.33 x10E3/uL
ABSOLUTE EOSINOPHIL [4]: 34.5 CELLS/uL
ABSOLUTE LYMPHOCYTE [4]: 8181 CELLS/uL
ABSOLUTE MONOCYTE [4]: 82.67 CELLS/uL
ABSOLUTE SEGMENTED NEUTROPHIL [4]: 435.17 CELLS/uL
EOSINOPHIL [4]: 0.5%
HEMATOCRIT [4]: 33.83%
HEMOGLOBIN [4]: 13.37 G/DL
LEUKOCYTE COUNT [4]: 8.73 x10E3/uL
LYMPHOCYTE [4]: 93.5%
MEAN CORPUSCULAR HEMOGLOBIN [4]: 25.2 pg
MEAN CORPUSCULAR HEMOGLOBIN CONCENTRATION [4]: 39.53 G/DL
MEAN CORPUSCULAR VOLUME [4]: 63.73 fL
MONOCYTE [4]: 1%
NEUTROPHIL [4]: 5%
NUCLEATED RED BLOOD CELLS [4]: 0 /100WBC
PLATELET COUNT [4]: 1057.33 x10E3/uL
ALANINE AMINOTRANSFERASE [3]: 59.67 u/L
ALBUMIN [3]: 3.87 G/DL
ALKALINE PHOSPHATASE [3]: 452 u/L
ASPARTATE AMINOTRANSFERASE [3]: 81.33 u/L
BLOOD UREA NITROGEN [3]: 13.67 mg/dL
CARBON DIOXIDE [3]: 26.33 mmol/L
CHLORIDE [3]: 103.67 MEQ/L
CHOLESTEROL [3]: 65.67 mg/dL
CREATINE PHOSPHOKINASE [3]: 355.33 u/L
CREATININE [3]: 0.14 mg/dL
GLUCOSE [3]: 171.33 mg/dL
LACTATE DEHYDROGENASE [3]: 118 u/L
LIPASE [3]: 11.33 u/L
PHOSPHORUS [3]: 11.13 mg/dL
POTASSIUM [3]: 5.18 MEQ/L
SODIUM [3]: 143.17 MEQ/L
TOTAL BILIRUBIN [3]: 0.2 mg/dL
TOTAL PROTEIN [3]: 5.87 G/DL
URIC ACID [3]: 0.63 mg/dL
ALANINE AMINOTRANSFERASE [4]: 54.33 u/L
ALBUMIN [4]: 4.07 G/DL
ALKALINE PHOSPHATASE [4]: 308.67 u/L
ASPARTATE AMINOTRANSFERASE [4]: 83.17 u/L
BLOOD UREA NITROGEN [4]: 14 mg/dL
CARBON DIOXIDE [4]: 34 mmol/L
CHLORIDE [4]: 98 MEQ/L
CHOLESTEROL [4]: 71.33 mg/dL
CREATINE PHOSPHOKINASE [4]: 266.5 u/L
CREATININE [4]: 0.27 mg/dL
GLUCOSE [4]: 133 mg/dL
LACTATE DEHYDROGENASE [4]: 127 u/L
LIPASE [4]: 11.67 u/L
PHOSPHORUS [4]: 10.6 mg/dL
POTASSIUM [4]: 6.17 MEQ/L
SODIUM [4]: 142.68 MEQ/L
TOTAL BILIRUBIN [4]: 0.15 mg/dL
TOTAL PROTEIN [4]: 6.03 G/DL
URIC ACID [4]: 0.75 mg/dL
ABSOLUTE BASOPHIL [5]: 0 CELLS/uL
ABSOLUTE EOSINOPHIL [5]: 0 CELLS/uL
ABSOLUTE LYMPHOCYTE [5]: 5839.67 CELLS/uL
ABSOLUTE MONOCYTE [5]: 204 CELLS/uL
ABSOLUTE SEGMENTED NEUTROPHIL [5]: 256.33 CELLS/uL
BASOPHIL [5]: 0%
EOSINOPHIL [5]: 0%
ERYTHROCYTE COUNT [5]: 4.55 x10E6/uL
HEMATOCRIT [5]: 29%
HEMOGLOBIN [5]: 11.47 G/DL
LEUKOCYTE COUNT [5]: 6.3 x10E3/uL
LYMPHOCYTE [5]: 93%
MEAN CORPUSCULAR HEMOGLOBIN [5]: 25.37 pg
MEAN CORPUSCULAR HEMOGLOBIN CONCENTRATION [5]: 39.7 G/DL
MEAN CORPUSCULAR VOLUME [5]: 64 fL
MONOCYTE [5]: 3%
NEUTROPHIL [5]: 4%
NUCLEATED RED BLOOD CELLS [5]: 0.33 /100WBC
PLATELET COUNT [5]: 1104.33 x10E3/uL
ALANINE AMINOTRANSFERASE [5]: 61 u/L
ALBUMIN [5]: 4.2 G/DL
ALKALINE PHOSPHATASE [5]: 326.33 u/L
ASPARTATE AMINOTRANSFERASE [5]: 82 u/L
BLOOD UREA NITROGEN [5]: 14 mg/dL
CARBON DIOXIDE [5]: 39.33 mmol/L
CHLORIDE [5]: 106.33 MEQ/L
CHOLESTEROL [5]: 92.67 mg/dL
CREATINE PHOSPHOKINASE [5]: 229 u/L
CREATININE [5]: 0.21 mg/dL
GLUCOSE [5]: 156.33 mg/dL
LACTATE DEHYDROGENASE [5]: 82.67 u/L
LIPASE [5]: 11 u/L
PHOSPHORUS [5]: 9.27 mg/dL
POTASSIUM [5]: 5.07 MEQ/L
SODIUM [5]: 137.8 MEQ/L
TOTAL BILIRUBIN [5]: 0.1 mg/dL
TOTAL PROTEIN [5]: 6.23 G/DL
URIC ACID [5]: 0.5 mg/dL
ABSOLUTE BASOPHIL [6]: 0 CELLS/uL
ABSOLUTE EOSINOPHIL [6]: 0 CELLS/uL
ABSOLUTE LYMPHOCYTE [6]: 5125.67 CELLS/uL
